Assay results taken from ChEMBL document CHEMBL4715829, “Heterodimeric Rifampicin-Tobramycin conjugates break intrinsic resistance of Pseudomonas aeruginosa to doxycycline and chloramphenicol in vitro and in a Galleria mellonella in vivo model” (Eur J Med Chem, 2019).

How the values were obtained:
Pseudomonas aeruginosa [1] = assay: Antibacterial activity against Pseudomonas aeruginosa 260-97103 assessed as reduction in bacterial growth incubated for 18 hrs by broth microdilution assay; assay type: functional
Pseudomonas aeruginosa [2] = assay: Antibacterial activity against Pseudomonas aeruginosa PAO1 assessed as fractional inhibitory concentration index in presence of Nitrofurantoin incubated for 18 hrs by broth microdilution assay based checkerboard assay; assay type: functional
Pseudomonas aeruginosa [3] = assay: Antibacterial activity against Pseudomonas aeruginosa 101885 assessed as fractional inhibitory concentration index in presence of chloramphenicol incubated for 18 hrs by broth microdilution assay; assay type: functional
Pseudomonas aeruginosa [4] = assay: Antibacterial activity against Pseudomonas aeruginosa PAO1 assessed as reduction in bacterial growth by measuring novobiocin MIC at <=10 uM in presence of novobiocin incubated for 18 hrs by broth microdilution assay based checkerboard assay (reference value: 512 microg/ml); assay type: functional; settings: dose microM <=10
Pseudomonas aeruginosa [5] = assay: Antibacterial activity against Pseudomonas aeruginosa 264-101354 assessed as fractional inhibitory concentration index in presence of doxycycline incubated for 18 hrs by broth microdilution assay; assay type: functional
Klebsiella pneumoniae [6] = assay: Antibacterial activity against Klebsiella pneumoniae ATCC 16381 assessed as fractional inhibitory concentration index in presence of chloramphenicol incubated for 18 hrs by broth microdilution assay; assay type: functional
Pseudomonas aeruginosa [7] = assay: Potentiation of chloramphenicol-induced antibacterial activity against Pseudomonas aeruginosa PAO1 incubated for 18 hrs in presence of chloramphenicol by broth microdilution assay; assay type: functional, organism-based; settings: dose 1-32 µg/ml
Enterococcus faecalis = assay: Antibacterial activity against Enterococcus faecalis ATCC 29212 assessed as reduction in bacterial growth incubated for 18 hrs by broth microdilution assay; assay type: functional
Pseudomonas aeruginosa [8] = assay: Antibacterial activity against Pseudomonas aeruginosa ATCC 27853 assessed as reduction in bacterial growth incubated for 18 hrs by broth microdilution assay; assay type: functional
Escherichia coli [9] = assay: Antibacterial activity against Escherichia coli ATCC 25922 assessed as fractional inhibitory concentration index in presence of doxycycline incubated for 18 hrs by broth microdilution assay; assay type: functional
[10] = tested on: Staphylococcus epidermidis; assay: Antibacterial activity against methicillin-resistance Staphylococcus epidermidis CAN-ICU 61589 (CAZ>32) assessed as reduction in bacterial growth incubated for 18 hrs by broth microdilution assay; assay type: functional
Pseudomonas aeruginosa [11] = assay: Potentiation of doxycycline-induced antibacterial activity against Pseudomonas aeruginosa PAO1 incubated for 18 hrs in presence of doxycycline by broth microdilution assay; assay type: functional, organism-based; settings: dose 1-32 µg/ml
Pseudomonas aeruginosa [12] = assay: Potentiation of doxycycline-induced antibacterial activity against Pseudomonas aeruginosa 264-101354 incubated for 18 hrs in presence of doxycycline by broth microdilution assay; assay type: functional, organism-based; settings: dose 1-32 µg/ml
Klebsiella pneumoniae [13] = assay: Antibacterial activity against Klebsiella pneumoniae ATCC 16381 assessed as reduction in bacterial growth incubated for 18 hrs by broth microdilution assay; assay type: functional
Escherichia coli [14] = assay: Antibacterial activity against Escherichia coli ATCC 25922 assessed as potentiation of doxycycline-induced antibacterial activity by measuring doxycycline MIC at 10 uM incubated for 18 hrs in presence of doxycycline by broth microdilution assay (reference value: 0.5 ug/ml); assay type: functional
Enterococcus faecium = assay: Antibacterial activity against Enterococcus faecium ATCC 27270 assessed as reduction in bacterial growth incubated for 18 hrs by broth microdilution assay; assay type: functional
Klebsiella pneumoniae [15] = assay: Antibacterial activity against Klebsiella pneumoniae ATCC 13883 assessed as reduction in bacterial growth incubated for 18 hrs by broth microdilution assay; assay type: functional
Klebsiella pneumoniae [16] = assay: Antibacterial activity against Klebsiella pneumoniae ATCC 16381 assessed as fractional inhibitory concentration index in presence of doxycycline incubated for 18 hrs by broth microdilution assay; assay type: functional
Pseudomonas aeruginosa [17] = assay: Antibacterial activity against Pseudomonas aeruginosa 91433 assessed as reduction in bacterial growth incubated for 18 hrs by broth microdilution assay; assay type: functional
[18] = tested on: Stenotrophomonas maltophilia; assay: Antibacterial activity against Stenotrophomonas maltophilia CAN-ICU 62584 assessed as reduction in bacterial growth incubated for 18 hrs by broth microdilution assay; assay type: functional
Pseudomonas aeruginosa [19] = assay: Antibacterial activity against Pseudomonas aeruginosa PAO1 assessed as fractional inhibitory concentration index in presence of Ceftazidime incubated for 18 hrs by broth microdilution assay based checkerboard assay; assay type: functional
Pseudomonas aeruginosa [20] = assay: Antibacterial activity against Pseudomonas aeruginosa PAO1 assessed as fractional inhibitory concentration index in presence of Trimethoprim incubated for 18 hrs by broth microdilution assay based checkerboard assay; assay type: functional
Acinetobacter baumannii [21] = assay: Antibacterial activity against Acinetobacter baumannii CAN-ICU 63169 assessed as reduction in bacterial growth incubated for 18 hrs by broth microdilution assay; assay type: functional
[22] = Cytotoxicity against human HepG2 cells assessed as cell viability at 50 uM incubated for 48 hrs by prestoblue assay; assay type: cell-based; settings: read-out: Activity
Pseudomonas aeruginosa [23] = assay: Potentiation of chloramphenicol-induced antibacterial activity against Pseudomonas aeruginosa 264-101354 incubated for 18 hrs in presence of chloramphenicol by broth microdilution assay; assay type: functional, organism-based; settings: dose 1-32 µg/ml
Pseudomonas aeruginosa [24] = assay: Antibacterial activity against Pseudomonas aeruginosa 114228 assessed as fractional inhibitory concentration index in presence of doxycycline incubated for 18 hrs by broth microdilution assay; assay type: functional
Enterobacter cloacae = assay: Antibacterial activity against Enterobacter cloacae ATCC 117029 assessed as fractional inhibitory concentration index in presence of doxycycline incubated for 18 hrs by broth microdilution assay; assay type: functional
Pseudomonas aeruginosa [25] = assay: Antibacterial activity against Pseudomonas aeruginosa 100036 assessed as fractional inhibitory concentration index in presence of chloramphenicol incubated for 18 hrs by broth microdilution assay; assay type: functional
Pseudomonas aeruginosa [26] = assay: Antibacterial activity against Pseudomonas aeruginosa PAO1 assessed as reduction in bacterial growth by measuring trimethoprim MIC at <=10 uM in presence of trimethoprim incubated for 18 hrs by broth microdilution assay based checkerboard assay (reference value: 64 microg/ml); assay type: functional; settings: dose microM <=10
Acinetobacter baumannii [27] = assay: Antibacterial activity against Acinetobacter baumannii ATCC 17978 assessed as reduction in bacterial growth incubated for 18 hrs by broth microdilution assay; assay type: functional
Acinetobacter baumannii [28] = assay: Antibacterial activity against Acinetobacter baumannii ATCC 17978 assessed as potentiation of doxycycline-induced antibacterial activity by measuring doxycycline MIC at 10 uM incubated for 18 hrs in presence of doxycycline by broth microdilution assay (reference value: 0.25 ug/ml); assay type: functional
Klebsiella pneumoniae [29] = assay: Antibacterial activity against Klebsiella pneumoniae ATCC 16381 assessed as potentiation of chloramphenicol-induced antibacterial activity by measuring chloramphenicol MIC at 10 uM incubated for 18 hrs in presence of chloramphenicol by broth microdilution assay (reference value: 1024 ug/ml); assay type: functional
Acinetobacter baumannii [30] = assay: Antibacterial activity against Acinetobacter baumannii ATCC 17978 assessed as fractional inhibitory concentration index in presence of doxycycline incubated for 18 hrs by broth microdilution assay; assay type: functional
Pseudomonas aeruginosa [31] = assay: Antibacterial activity against Pseudomonas aeruginosa 114228 assessed as reduction in bacterial growth incubated for 18 hrs by broth microdilution assay; assay type: functional
Pseudomonas aeruginosa [32] = assay: Antibacterial activity against Pseudomonas aeruginosa 114228 assessed as fractional inhibitory concentration index in presence of chloramphenicol incubated for 18 hrs by broth microdilution assay; assay type: functional

| Compound | MIC (Pseudomonas aeruginosa [1]) | fractional inhibitory concentration index (FICI) (Pseudomonas aeruginosa [2]) | fractional inhibitory concentration index (FICI) (Pseudomonas aeruginosa [3]) | MIC (Pseudomonas aeruginosa [4]) | fractional inhibitory concentration index (FICI) (Pseudomonas aeruginosa [5]) | fractional inhibitory concentration index (FICI) (Klebsiella pneumoniae [6]) | Activity (Pseudomonas aeruginosa [7]) | MIC (Enterococcus faecalis) | MIC (Pseudomonas aeruginosa [8]) | fractional inhibitory concentration index (FICI) (Escherichia coli [9]) | MIC [10] | Activity (Pseudomonas aeruginosa [11]) | Activity (Pseudomonas aeruginosa [12]) | MIC (Klebsiella pneumoniae [13]) | MIC (Escherichia coli [14]) | MIC (Enterococcus faecium) | MIC (Klebsiella pneumoniae [15]) | fractional inhibitory concentration index (FICI) (Klebsiella pneumoniae [16]) | MIC (Pseudomonas aeruginosa [17]) | MIC [18] | further results |
| --- | --- | --- | --- | --- | --- | --- | --- | --- | --- | --- | --- | --- | --- | --- | --- | --- | --- | --- | --- | --- | --- |
| CO[C@H]1/C=C/O[C@@]2(C)Oc3c(C)c(O)c4c(O)c(c(/C=N/N5CCN(Cc6cn(CCCCCCO[C@@H]7[C@@H](O[C@H]8O[C@H](CO)[C@@H](O)[C@H](N)[C@H]8O)[C@H](N)C[C@H](N)[C@H]7O[C@H]7O[C@H](CN)[C@@H](O)C[C@H]7N)nn6)CC5)c(O)c4c3C2=O)NC(=O)/C(C)=C\C=C\[C@H](C)[C@H](O)[C@@H](C)[C@@H](O)[C@@H](C)[C@H](OC(C)=O)[C@@H]1C.Cl.Cl.Cl.Cl.Cl | > 128 µg/mL | 0.53 | 0.078 | 128 µg/mL | 0.064 | <0.375 | Dose-dependent effect | > 32 µg/mL | > 32 µg/mL | 0.5 | 4 µg/mL | Dose-dependent effect | Dose-dependent effect | > 128 µg/mL | 0.125 µg/mL | > 32 µg/mL | > 32 µg/mL | <0.516 | > 128 µg/mL | > 32 µg/mL | fractional inhibitory concentration index (FICI) (Pseudomonas aeruginosa [19]): 1.03; fractional inhibitory concentration index (FICI) (Pseudomonas aeruginosa [20]): 0.53; MIC (Acinetobacter baumannii [21]): > 32 µg/mL; viability at 48 h, 50 µM [22]: > 70%; Activity (Pseudomonas aeruginosa [23]): Dose-dependent effect; fractional inhibitory concentration index (FICI) (Pseudomonas aeruginosa [24]): <0.156; fractional inhibitory concentration index (FICI) (Enterobacter cloacae): 0.5; fractional inhibitory concentration index (FICI) (Pseudomonas aeruginosa [25]): 0.066; MIC (Pseudomonas aeruginosa [26]): 32 µg/mL; MIC (Acinetobacter baumannii [27]): 64 µg/mL; MIC (Acinetobacter baumannii [28]): 0.25 µg/mL; MIC (Klebsiella pneumoniae [29]): 256 µg/mL; fractional inhibitory concentration index (FICI) (Acinetobacter baumannii [30]): 1.25; MIC (Pseudomonas aeruginosa [31]): > 128 µg/mL; fractional inhibitory concentration index (FICI) (Pseudomonas aeruginosa [32]): <0.281 |
| CO[C@H]1/C=C/O[C@@]2(C)Oc3c(C)c(O)c4c(O)c(c(/C=N/N5CCN(Cc6cn(CCCCCCCCCCCCO[C@@H]7[C@@H](O[C@H]8O[C@H](CO)[C@@H](O)[C@H](N)[C@H]8O)[C@H](N)C[C@H](N)[C@H]7O[C@H]7O[C@H](CN)[C@@H](O)C[C@H]7N)nn6)CC5)c(O)c4c3C2=O)NC(=O)/C(C)=C\C=C\[C@H](C)[C@H](O)[C@@H](C)[C@@H](O)[C@@H](C)[C@H](OC(C)=O)[C@@H]1C.O=C(O)C(F)(F)F.O=C(O)C(F)(F)F.O=C(O)C(F)(F)F.O=C(O)C(F)(F)F.O=C(O)C(F)(F)F | > 128 µg/mL | 0.53 | 0.07 | 128 µg/mL | 0.078 | <0.281 | Dose-dependent effect | > 32 µg/mL | > 32 µg/mL | 0.625 | 8 µg/mL | Dose-dependent effect | Dose-dependent effect | > 128 µg/mL | 0.25 µg/mL | > 32 µg/mL | > 32 µg/mL | <0.516 | > 128 µg/mL | > 32 µg/mL | fractional inhibitory concentration index (FICI) (Pseudomonas aeruginosa [19]): 1.03; fractional inhibitory concentration index (FICI) (Pseudomonas aeruginosa [20]): 0.28; MIC (Acinetobacter baumannii [21]): > 32 µg/mL; viability at 48 h, 50 µM [22]: > 70%; Activity (Pseudomonas aeruginosa [23]): Dose-dependent effect; fractional inhibitory concentration index (FICI) (Pseudomonas aeruginosa [24]): <0.187; fractional inhibitory concentration index (FICI) (Enterobacter cloacae): 0.375; fractional inhibitory concentration index (FICI) (Pseudomonas aeruginosa [25]): 0.067; MIC (Pseudomonas aeruginosa [26]): 16 µg/mL; MIC (Acinetobacter baumannii [27]): 64 µg/mL; MIC (Acinetobacter baumannii [28]): 0.25 µg/mL; MIC (Klebsiella pneumoniae [29]): 256 µg/mL; fractional inhibitory concentration index (FICI) (Acinetobacter baumannii [30]): 1.25; MIC (Pseudomonas aeruginosa [31]): > 128 µg/mL; fractional inhibitory concentration index (FICI) (Pseudomonas aeruginosa [32]): <0.156 |
